Source: PubChem BioAssay (NCI)
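Growth conditions: 96-well plates. Treatment: test compound, 48 hours, 5 concentrations. Analysis: linear interpolation between bracketing concentrations; unreached endpoints set to highest concentration. The concentration for full growth arrest is given as TGI.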

What was measured:
Assay in all cases: growth of human tumour cells (NCI), 48 h
OVCAR-8 ovarian = tested on: OVCAR-8 ovarian
KM12 colon = tested on: KM12 colon
SN12C renal = tested on: SN12C renal
LOX IMVI melanoma = tested on: LOX IMVI melanoma
786-0 renal = tested on: 786-0 renal
DU-145 prostate = tested on: DU-145 prostate
SR leukemia = tested on: SR leukemia
NCI-H522 lung = tested on: NCI-H522 lung
HCC-2998 colon = tested on: HCC-2998 colon
U251 CNS = tested on: U251 CNS
MALME-3M melanoma = tested on: MALME-3M melanoma
UO-31 renal = tested on: UO-31 renal
IGROV1 ovarian = tested on: IGROV1 ovarian
RXF 393 renal = tested on: RXF 393 renal

| SMILES | TGI (OVCAR-8 ovarian) | TGI (KM12 colon) | TGI (SN12C renal) | TGI (LOX IMVI melanoma) | TGI (786-0 renal) | TGI (DU-145 prostate) | TGI (SR leukemia) | TGI (NCI-H522 lung) | TGI (HCC-2998 colon) | TGI (U251 CNS) | TGI (MALME-3M melanoma) | TGI (UO-31 renal) | TGI (IGROV1 ovarian) | TGI (RXF 393 renal) |
| --- | --- | --- | --- | --- | --- | --- | --- | --- | --- | --- | --- | --- | --- | --- |
| CSC1=C(SC)SC(=C2SC3=C(SC(=C4SCCS4)S3)S2)S1 | > 100 µM | > 100 µM | > 100 µM | > 100 µM | > 100 µM | > 100 µM | > 100 µM | > 100 µM | > 100 µM | > 100 µM | > 100 µM | > 100 µM | > 100 µM |  |
| CC(=O)N(C(=O)CC(=O)N/N=C\c1ccc(Br)c(N(CCC#N)CCC#N)c1)c1ccc(Cl)cc1 | > 100 µM | > 100 µM | > 100 µM | > 100 µM | > 100 µM | > 100 µM | > 100 µM |  | > 100 µM | > 100 µM | > 100 µM | > 100 µM | > 100 µM | > 100 µM |
| C[C@]12CCC(=O)C=C1CC[C@@H]1C2CC[C@]2(C)c3nn(-c4ccc(F)cc4)nc3CC12 (stereo partly drawn) | > 100 µM | > 100 µM | > 100 µM |  | > 100 µM | > 100 µM | > 100 µM | > 100 µM | > 100 µM | > 100 µM | > 100 µM | > 100 µM | > 100 µM | > 100 µM |
| CO[C@H]1[C@@H](O)[C@@H](C)O[C@@H](O[C@H]2CC[C@@]3(C)[C@H](CC[C@@H]4[C@@H]3CC[C@]3(C)[C@@H](C5=CC(=O)OC5)[C@@H](OC(C)=O)C[C@]43O)C2)[C@@H]1O | 0.152 µM | 0.592 µM |  | 0.194 µM | 0.067 µM | 0.0589 µM | > 50 µM | 0.0368 µM | 0.824 µM | 0.186 µM | 0.0445 µM | 0.0686 µM | 0.772 µM | 0.0523 µM |
| Cc1cccc(/C=N/NC(=S)NCCc2ccccn2)n1 | > 100 µM | > 100 µM | > 100 µM | > 100 µM | > 100 µM | > 86.3 µM | > 100 µM | > 100 µM | > 100 µM | 92.1 µM | > 100 µM | 64.2 µM | > 100 µM |  |
| O=C1/C(=C\c2ccc([N+](=O)[O-])o2)SC2N=C(COc3ccc(Cl)cc3)NN12 (stereo not drawn) | 10.2 µM | 28.4 µM | 29.6 µM | 10.5 µM | 13.7 µM | 27.3 µM | > 100 µM | 4.81 µM |  | 34.7 µM | 6.07 µM | 23 µM | 9.82 µM | 31.6 µM |
| COc1ccc(C[N+]23C(CC[C@H]2c2ccccc2)CC[C@H]3c2ccccc2)cc1 (stereo partly drawn) | > 100 µM | 24.4 µM | > 100 µM | 44.7 µM | > 100 µM | 77.8 µM | 41.4 µM | 45.4 µM |  | > 100 µM | 30.8 µM | > 100 µM | 36.5 µM | 35.3 µM |
| COc1cccc(CCn2c(N)c(-c3ccccc3)c3ccc([N+](=O)[O-])cc3c2=O)c1 | 4.45 µM | 16 µM | 1.53 µM | 6.53 µM | 19.4 µM | 31.6 µM | 31.6 µM | 9.37 µM | 24.8 µM | 36.5 µM | 33.6 µM | 27.2 µM | 23.4 µM |  |
| C/C(=N\Nc1cc(CN2CCCC2)c(-c2ccc(Cl)cc2)nn1)C(=O)O | > 100 µM | > 100 µM | > 100 µM | > 100 µM | > 100 µM | > 100 µM | > 100 µM | > 100 µM |  | > 100 µM | > 100 µM | > 100 µM | > 100 µM | > 100 µM |
| CCOC(=O)c1nc2c(Cl)c3ncccc3cc2[nH]c1=O | > 100 µM | > 100 µM |  |  | > 100 µM | > 100 µM | > 100 µM | > 100 µM | 43.8 µM | > 100 µM | > 100 µM | > 100 µM | > 100 µM | > 100 µM |
| CCOC(=O)C1=C(Nc2cccc(OC)c2)OCC1=O | > 100 µM | > 100 µM |  | > 100 µM | > 100 µM | > 100 µM | > 100 µM |  | > 100 µM | > 100 µM |  | > 100 µM | > 100 µM | > 100 µM |
| Cc1cc(C)cc(C(=N)c2ccccc2Cc2cccc3ccccc23)c1 | 34.1 µM | 24 µM | 34.8 µM | 33 µM | 31.8 µM | 29.7 µM | 41.3 µM | 24.4 µM |  | > 100 µM | 33.4 µM | > 100 µM | 34.9 µM | 31.9 µM |
